Reference: patent US20250241876A1, “ANTI-TUMOR COMPOUNDS AND METHODS OF USE THEREOF AND SYNTHESIS THEREOF” (Atossa Therapeutics, Inc., priority 2023, published 2025)

Legend:
Format in all cases: cell-based
T47D cells [1] = test: 2D culture proliferation, T47D
Excerpt: (§1) Approximately 80% of breast cancers express estrogen receptor alpha (ERα, ESR1) which drives cancer progression. […] (Z)-Endoxifen (ENDX), an active metabolite of tamoxifen, is a potent orally bioavailable selective estrogen receptor modulator with a favorable safety profile now under development for breast health applications. Its synthesis yields endoxifen-related byproduct new chemical entities (NCE), including Compound 7b, Compound 7a, Compound 5b and Compound 5a. This study compared the anti-estrogenic effects of these compounds to (Z)-endoxifen in ERα+ breast cancer cell lines (MCF7, T47D, UCD12), including those with ESR1 mutations (Y537S, D538G) linked to endocrine resistance.

[2] = test system: ERα+ breast cancer cell lines in 3D cultures; test: 3D culture cancer cell proliferation; settings: ~1 μM
Excerpt: as §1

MCF7 cells [3] = test: Apoptosis induction, MCF7, Example 29; settings: 1-5 μM; p<0.0001 vs. vehicle; p<0.0001 vs. (Z)-endoxifen
[4] = test system: ERα+ breast cancer cell lines; test: Cell cycle arrest, Example 29
Excerpt: as §1

T47D cells [5] = test: Crystal violet cell viability assay, T47D
Method: This example covers the cell toxicities of endoxifen and various endoxifen-related compounds. The toxicities of these compounds were measured using crystal violet cell viabilities assays per the protocols outlined in Feoktistova et al., Cold Spring Harb Protoc., 2016; 4 (PMID: 27037069). This assay utilizes crystal violet, which is a triarylmethane dye that binds to ribose type molecules such as DNA in nuclei. The amount of crystal violet staining is proportional to the cell biomass that is attached to the plate and thus this cell biomass can be used to infer levels of cell viability and cytotoxicity in control/experimental conditions. […]
FIGS. 34-39 summarize crystal violet assays with endoxifen (top-left plot in each figure), Compound 7b (top-middle plot in each figure), Compound 7a (top-right plot in each figure), Compound 5b (bottom-left plot in each figure), Compound 5a (bottom-middle plot in each figure), and Compound 3 (bottom-right plot in each figure). Each individual plot provides normalized absorbance (corresponding to cell concentration) over 25 nM to 5 μM concentration ranges, with the rightmost entry in each plot corresponding to vehicle treatment. […]

UCD12 cells = test: 2D culture proliferation, UCD12; settings: for anti-proliferative activity compared with (Z)-endoxifen: estrogen-deficient conditions
Excerpt: as §1

T47D cancer cells = test: Cell cycle progression assay; settings: higher concentration (2.5, 5 μM)
Method: This example covers cell cycle progression assays with endoxifen and multiple endoxifen-related compounds on T47D cancer cells. FIGS. 63A-G are plots that show absolute cell counts for cells in different cell cycle phases (G1 through S; G1; and S, G2, and M) following treatment with vehicle (DMSO) or 1.25 μM endoxifen, Compound 7b, Compound 7a, Compound 5b, Compound 5a, and Compound 3, respectively. FIGS. 64A-G are plots that show percent cell counts for cells in different cell cycle phases following treatment with vehicle or 1.25 μM endoxifen, Compound 7b, Compound 7a, Compound 5b, Compound 5a, and Compound 3, respectively. FIGS. 65A-G are plots that show absolute cell counts for cells in different cell cycle phases following treatment with vehicle or 2.5 μM endoxifen, Compound 7b, Compound 7a, Compound 5b, Compound 5a, and Compound 3, respectively. FIGS. 66A-G are plots that show percent cell counts for cells in different cell cycle phases following treatment with vehicle or 2.5 μM endoxifen, Compound 7b, Compound 7a, Compound 5b, Compound 5a, and Compound 3, respectively. FIGS. 67A-G are plots that show absolute cell counts for cells in different cell cycle phases following treatment with vehicle or 5 μM endoxifen, Compound 7b, Compound 7a, Compound 5b, Compound 5a, and Compound 3, respectively. […]

MCF7 cells [6] = test: Caspase-3/7 apoptosis assay, MCF7; settings: 1.25, 2.5, 5 μM
Excerpt: This example covers anti-invasion, apoptosis, and toxicity assays for various endoxifen-related compounds against multiple cancer cell lines. FIGS. 90A-F are plots that summarize results of proliferation assays for multiple cancer cell lines (MCF7, T47D, UCD4, and UCD12) in the presence of varying doses of endoxifen and multiple endoxifen-related compounds. FIGS. 91A-C are plots that summarize results of wound confluence measurements from scratch wound assays on T47D cells in the presence of 1.25 μM (FIG. 91A), 2.5 μM (FIG. 91B), and 5 μM (FIG. 91C) endoxifen and multiple endoxifen-related compounds. FIGS. 92A-C are plots that summarize results of wound density measurements from scratch wound assays on T47D cells in the presence of 1.25 μM (FIG. 92A), 2.5 μM (FIG. 92B), and 5 μM (FIG. 92C) endoxifen and multiple endoxifen-related compounds. FIGS. 93A-C are plots that summarize results of wound confluence measurements from scratch wound assays on MCF7 cells in the presence of 1.25 μM (FIG. 93A), 2.5 μM (FIG. 93B), and 5 μM (FIG. 93C) endoxifen and multiple endoxifen-related compounds. FIGS. 94A-C are plots that summarize results of wound density measurements from scratch wound assays on MCF7 cells in the presence of 1.25 μM (FIG. 94A), 2.5 μM (FIG. 94B), and 5 μM (FIG. 94C) endoxifen and multiple endoxifen-related compounds. […]

[7] = test system: estrogen-induced and ERα-mediated activation of an estrogen response element (ERE) luciferase reporter construct in ER+ T47D cells; test: Luciferase (ERE reporter) agonist/antagonist assay, ER+ cells
T47D cells [8] = test: Apoptosis induction, T47D, Example 29; settings: p<0.0001 vs. vehicle
[9] = test system: ERα+ breast cancer cell lines; test: RT-qPCR analysis; settings: 0.1 μM
[10] = 2D cultures, estrogen-containing media

What does the source list for `CC/C(=C(\c1ccc(O)cc1)c1ccc(OCC[N+](C)(C)C)cc1)c1ccccc1` [Compound 5a]?
anti-proliferative effect, ranking (T47D cells [1]; [10]): strongest effects; potency in 3D cultures, ranking [2]: comparable, superior potency; apoptosis induction in MCF7 cells (MCF7 cells [3]): surpassing (Z)-endoxifen; G1 cell cycle arrest [4]: most effective; activity against T47D cells compared with endoxifen (T47D cells [5]; micromolar concentrations (FIG. 41)): greater activity than endoxifen; activity against T47D cells compared with endoxifen (T47D cells [5]; sub-100 nanomolar concentrations (FIG. 41)): lower activity against T47D cells than endoxifen; anti-proliferative activity compared with (Z)-endoxifen (UCD12 cells): more effective; cell cycle inhibition compared with endoxifen (T47D cancer cells): slightly lower cell cycle inhibition activity than endoxifen; potency at inducing the apoptosis of MCF7 cells (MCF7 cells [6]): equal potencies; agonist or antagonist behavior (luciferase assay) ([7]; T47D cell lines, FIGS. 72-74): strong antagonistic behavior

Which “apoptosis induction in MCF7 cells” value (MCF7 cells [3]) does the source give for `CC/C(=C(/c1ccc(O)cc1)c1ccc(OCC[N+](C)(C)C)cc1)c1ccccc1` [Compound 5b] here?
The value was “surpassing (Z)-endoxifen”.

And the “cell cycle inhibition compared with endoxifen” value (T47D cancer cells)?
The value was “slightly lower cell cycle inhibition activity than endoxifen”.

What about the “potency at inducing the apoptosis of MCF7 cells” value (MCF7 cells [6]) of the same compound?
Its value is “equal potencies”.

With `CC/C(=C(\c1ccc(O)cc1)c1ccc(OCCN(C)C(C)=O)cc1)c1ccccc1` [Compound 7a] as the compound, how does the “apoptosis induction in T47D cells” value (T47D cells [8]) read?
Its value is “significantly induced”.

And the “anti-proliferative activity compared with (Z)-endoxifen” value (T47D cells [1]; estrogen-deficient conditions)?
The value was “more effective”.

What about the “apoptosis induction in MCF7 cells” value (MCF7 cells [3]) of the same compound?
Its value is “surpassing (Z)-endoxifen”.

And the “RT-qPCR analysis, potency ranking” value [9]?
The value was “most potent”.

And the “anti-proliferative effect, ranking” value (UCD12 cells; [10])?
Its value is “strongest effects”.

What about the “anti-proliferative activity compared with (Z)-endoxifen” value (UCD12 cells) of the same compound?
Its value is “more effective”.

What about the “anti-proliferative effects in ER+ cells compared with endoxifen” value ([7]; CSS+E2 media) of the same compound?
Its value is “closely resemble that of endoxifen”.
